Our source for the IC50 values is patent US8377938B2, “Phenoxypyridine derivative salts and crystals thereof, and process for preparing the same” (Eisai R&D Management Co., Ltd., priority 2007, dated 2013).

Assay [1] concerns Human gastric cancer cells (MKN-45). Nature of the assay: Inhibitory activity against the proliferation of human gastric cancer cells (MKN-45). Type of assay: cell-based. The settings on record: 72 h, read-out: IC50, concentration necessary to inhibit the cell proliferation by 50%, MKN-45, 1% FBS RPMI1640, 3 days, Cell Counting Kit-8. How it is done: Pharmacological Test Example 2:Inhibitory Activity Against the Proliferation of Human Gastric Cancer Cells (MKN-45)
Human gastric cancer cells (MKN-45) were suspended in a 1% FBS-containing RPMI1640 medium (purchased from Sigma). The cell suspension (1×10^4 cells/ml) was added in a 96-well plate for cell culture (purchased from NUNC, Production No. 167008) at 0.1 ml/well, and then cultured in a 5% CO2 incubator (37° C.) overnight. After the culture, each well was supplied with 0.1 ml of a test substance diluted with a 1% FBS-containing RPMI1640 medium, followed by culturing in a 5% CO2 incubator (37° C.) for 3 days. After the culture, each well was supplied with 10 μl of Cell Counting Kit-8 (purchased from DOJINDO, Production No. 343-07623), followed by incubation in a 5% CO2 incubator (37° C.) for about 1.5 hrs. After the incubation, using the Plate Reader MTP-500 (Corona Electric), the absorbance of each well was determined at a measurement wavelength of 450 nm and a reference wavelength of 660 nm.
A general note: Tetrazolium dyes change colour on reduction, which living cells bring about.

Assay [2] relates to HGFR autophosphorylation. Put plainly: Inhibitory activity against the HGFR autophosphorylation using ELISA. Type of assay: cell-based. The settings on record: Homo sapiens, read-out: IC50, concentration necessary to inhibit HGFR autophosphorylation activity by 50%, MKN-45 cells, 1 hr treatment. How it is done: Pharmacological Test Example 3:Inhibitory Activity Against the HGFR Autophosphorylation Using ELISA
1. Preparation of Cell Extract
Human gastric cancer cells (MKN-45) were suspended in a 1% FBS-containing RPMI1640 medium (purchased from Sigma). The cell suspension (1×10^5 cells/ml) was put in a 96-well plate for cell culture (purchased from NUNC, Production No. 167008) at 0.1 ml/well, and then cultured in a 5% CO2 incubator (37° C.) overnight. After the culture, from each well was removed the supernatant solution, followed by adding 0.05 ml of a 1% FBS-containing RPMI1640 medium. […]
Each well of the plate prepared in 2. was washed three times with 200 μl of PBS, and supplied with 150 μl of 3% BSA/PBS, followed by incubating at room temperature for 2 hrs. […] Each well was supplied with 70 μl of 1 M phosphoric acid, and using the Plate Reader MTP-500 (Corona Electric), the absorbance of the well was instantly determined at a measurement wavelength of 450 nm. While defining the absorbance of a well supplied with the cell extract having no test substance as 100% HGFR autophosphorylation activity, and the absorbance, of a well supplied with 50 μl of the lysis buffer as 0% HGFR autophosphorylation activity, the HGFR autophosphorylation activity (%) was calculated for each well. […]

With `CN1CCN(C2CCN(C(=O)Nc3cc(Oc4ccc(NC(=O)C5(C(=O)Nc6ccc(F)cc6)CC5)c(F)c4)ccn3)CC2)CC1` [compound 1, N-(2-fluoro-4-{[2-({[4-(4-methylpiperazin-1-yl)piperidin-1-yl]carbonyl}amino)pyridin-4-yl]oxy}phenyl)-N′-(4-fluorophenyl)cyclopropane-1,1-dicarboxyamide], the values for the IC50 in assay [1] and in assay [2] were 17 nM and 16 nM, respectively.

As to `O=C(Nc1cc(Oc2cc(F)c(NC(=O)C3(C(=O)Nc4ccc(F)cc4)CC3)cc2F)ccn1)N1CC(O)C1` [compound 2, N-{2,5-difluoro-4-[(2-{[(3-hydroxyazetidin-1-yl)carbonyl]amino}pyridin-4-yl)oxy]phenyl}-N′-(4-fluorophenyl)cyclopropane-1,1-dicarboxyamide], the IC50 in assay [1] is 5 nM; in assay [2] it was 8.4 nM.
